Measurements from article PMC7070167, “Cell‐permeable high‐affinity tracers for Gq proteins provide structural insights, reveal distinct binding kinetics and identify small molecule inhibitors” (British Journal of Pharmacology, 2020).
Like-named read-outs stand apart in the source and are kept apart here. *1 amine or outer side, *2 acyl side, *3 side chain or, on linkers, in order; H or OH if unused. Where a SMILES comes first, the peptide text is derived from it. Bridges are numbered along the chain shown (N, C = ends). [ ]: non-standard residue; d: D form. The star is where a group is joined. Leu(3R-OH,Nα-propionyl) = CCC(=O)N[C@H](C(=O)*)[C@H](O)C(C)C; X1 = CC(C)[C@@H](O[*:3])[C@H](N[*:1])C(=O)[*:2]; NMeT = CN[C@H](C(=O)O)[C@@H](C)O; dPhLac = O=C(O)[C@H](O)Cc1ccccc1; NMeA = CN[C@@H](C)C(=O)O; NMeDha = C=C(NC)C(=O)O

Target: T1, Gq proteins (Homo sapiens, UniProt P50148)
T1 construct: Native cell membrane preparations from rat brain cortex and human blood platelets; host or cells: human platelets (intact suspension or membrane preparation)
T1 sequence (P50148 1-359): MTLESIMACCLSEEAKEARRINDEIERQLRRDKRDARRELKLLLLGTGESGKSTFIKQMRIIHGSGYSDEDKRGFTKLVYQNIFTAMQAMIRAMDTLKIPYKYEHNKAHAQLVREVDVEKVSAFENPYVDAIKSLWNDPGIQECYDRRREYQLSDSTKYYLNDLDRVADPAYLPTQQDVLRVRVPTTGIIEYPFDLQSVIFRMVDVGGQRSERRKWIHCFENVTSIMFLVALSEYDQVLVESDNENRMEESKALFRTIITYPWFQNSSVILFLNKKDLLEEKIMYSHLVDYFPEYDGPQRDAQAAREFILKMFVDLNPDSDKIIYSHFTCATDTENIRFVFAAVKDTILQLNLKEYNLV
Experiment: High-throughput (96-well) competition binding assay at human platelet membranes
Conditions: for Ki: versus [³H]PSB-15900 (5 nM), high-throughput 96-well format, 37°C
Procedure: The experiments were performed in 50‐mM Tris–HCl buffer, pH 7.4. The final assay volume of 200 μl contained 5 μl of test compound in DMSO, 50 μl of [^3H]PSB‐15900 or [^3H]PSB‐16254, respectively, in buffer, 5 nM of final concentration, and 100 μl of human platelet membrane preparation (50 μg of protein) or intact human platelets (7.5 × 10^6 cells/vial). Non‐specific binding was determined in the presence of 5‐μM FR. The incubation was started by the addition of membrane preparation and was performed at 37°C for 1 hr with gentle shaking. It was terminated by rapid vacuum filtration through GF/C glass‐fibre filters using a Brandel 24‐well harvester. The filters were rinsed three times with approximately 3 ml each of ice‐cold Tris–HCl buffer, 50 mM, pH 7.4 containing 0.1% Tween 20 and 0.1% BSA, to separate bound from free radioligand. The filters were punched out and transferred to scintillation vials. Luma Safe® scintillation cocktail (2.5 ml) was added, and after 6 hr of incubation, the samples were counted for 1 min each, using a liquid scintillation counter (counting efficiency 53%). Experiments in the presence of GTP were additionally performed after preincubation of the membrane preparation with GTP for 1 hr. pIC50 and pKi values were calculated using equations for one‐site competition as implemented in GraphPad Prism 6.01 (GraphPad Inc., La Jolla, CA, USA).
Competition binding experiments were performed as described above (for incubation conditions, washing steps, and buffers) but on 96‐well plates using a Brandel 96‐well plate harvester with GF/C Unifilters (Perkin‐Elmer). After harvesting, 50 μl per cavity of Ultima Gold scintillation cocktail (Perkin‐Elmer) was added, and counting was performed as described above.

With `C=C1C(=O)N[C@@H](C)C(=O)N(C)[C@@H](C)C(=O)N[C@@H]([C@H](OC(=O)[C@@H](NC(=O)CC)[C@H](O)C(C)C)C(C)C)C(=O)N(C)[C@@H]([C@@H](C)OC)C(=O)O[C@H](C(C)C)[C@H](NC(C)=O)C(=O)O[C@H](Cc2ccccc2)C(=O)N1C` [FR, FR900359] (Ac-[X1][dPhLac][NMeDha]A[NMeA][X1](Leu(3R-OH,Nα-propionyl))[NMeT](Me); ester 1-C) the “inhibition of radioligand binding (positive control)” value (1 μM, 96‐well plates) was “complete inhibition”, the Ki (read-out: Ki) was 6.56 ± 1.92 nM and the Ki (read-out: pKi (converted)) was 6.46 nM.
